Blank lines part the entries; values can stand above or below the compound they belong to.
Columns and labels:
NFκB = assay: NFκB-driven luciferase reporter assay in LPS-challenged RAW 264.7 macrophages; assay type: cell-based; details: Mus musculus, RAW264.7; RAW 264.7, LPS 200 ng/mL; linked bioactive; read-out: IC50 in an NFkB assay
Protocol: RAW 264.7 cells transfected with an NFκB-driven luciferase reporter were plated in 96 well plates. Cells were treated with Vehicle (0.1% ethanol) or test compounds for 2 hours. As a positive control for inhibition of NFκB signaling, 6 wells were treated with […]. Cells were then challenged with 200 ng/mL LPS for 3 hours in the presence of test compounds. A subset of wells treated with vehicle remained unstimulated with LPS to determine the floor signal of the assay. NFκB driven luciferase activity was developed by addition of BriteLite luciferase kit (PERKIN ELMER®) and measured using a Victor V plate reader. NFκB activity (luciferase activity) for each treatment was normalized to Vehicle wells treated with LPS (% NFκB Response).

[1] = target: T1, human recombinant MAG-lipase (Homo sapiens, UniProt Q99685); assay: Hydrolysis with human recombinant monoacylglycerol lipase, with and without MAGL inhibitor; assay type: biochemical; details: FIG. 8
T1 construct: purchased Cayman 705192
T1 sequence (Q99685 1-303): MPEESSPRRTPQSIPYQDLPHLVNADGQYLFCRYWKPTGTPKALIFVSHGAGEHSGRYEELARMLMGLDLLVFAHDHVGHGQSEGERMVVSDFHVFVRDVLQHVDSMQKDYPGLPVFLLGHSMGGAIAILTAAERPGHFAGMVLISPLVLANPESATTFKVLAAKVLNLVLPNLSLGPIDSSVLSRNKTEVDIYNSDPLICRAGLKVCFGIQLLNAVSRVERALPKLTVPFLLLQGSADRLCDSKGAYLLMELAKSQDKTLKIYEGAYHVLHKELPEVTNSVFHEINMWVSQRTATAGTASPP
Protocol: Hydrolysis experiment involving Monoacylglycerol lipase (MAGL) with and without a MAGL inhibitor. A commercially available Monoacylglycerol (MAGL) kit from Cayman (Cat #705192) was used for the hydrolysis experiment. The hydrolysis was carried out in Eppendorf tubes by adding together 300 μL of a 10 mM Tris-HCl buffer (pH 7.2, 1 mM EDTA), 20 μL of DMSO, and 20 μL of the human recombinant MAG-lipase. […] The Eppendorf tubes were gently inverted to mix the components and then placed in a 37° C. incubator. A 25 μl, sample was withdrawn at each of the following time points: 0, 5, 10, 15, and 30 min. […] In a separate experiment, the hydrolysis was then repeated in the presence of a MAGL inhibitor (compound JZL184, supplied with the commercially available MAGL kit). Eppendorf tubes were charged with 300 μL of a 10 mM Tris-HCl buffer (pH 7.2, 1 mM EDTA), 20 μL of a […] solution of JZL184 in DMSO in order to make a 5 μM final concentration, and 20 μL of the human recombinant MAG-lipase. […] The Eppendorf tubes were gently inverted to mix the components and then placed in a 37° C. incubator.

[2] = Sprague Dawley rat brain homogenate promoted cleavage of a linked bioactive, with and without FAAH inhibitor URB597; assay type: in vitro ADME; details: FIG. 1; 5 μM inhibitor
Protocol: The purpose of this assay was to measure the ability of Sprague Dawley rat brain homogenate to hydrolyze a linked bioactive in the presence of fatty acid amide hydrolase inhibitor URB597 (obtained from Cayman Chemical, cat #10046. Brains were harvested from male Sprague Dawley rats and were homogenized 1:4 (grams:mL) in 20 mM 4-(2-hydroxyethyl)-1-piperazineethanesulfonic acid, pH 7.0. Total protein in the rat brain homogenate was determined by a Bradford protein assay.
Linked bioactive was dissolved in methanol at 50 mM. Hydrolysis reactions were conducted with 500 μM of compound in a reaction buffer of 50 mM Hcpcs, 1 mM EDTA, 0.1% Triton X100, pH 8.0, and 1 mg/mL total protein from rat brain homogenate. Reactions were incubated at 37° C. The total reaction volume was 500 μL. Reactions were quenched by transferring 30 μL of reaction into 200 μL of acetonitrile containing 100 ng/mL of internal standard compound, after 0 hours, 1 hour, 2 hours, and 3 hours. […]
Generally, levels of parent linked bioactive and hydrolysis products were measured using an Agilent 1260 HPLC and an Agilent 6410 triple quadrapole mass spectrometer with an electrospray source and using multiple reaction monitoring and relevant mass/charge transitions. […] Injection volumes and flow rates were determined for each specific parent linked bioactive and relative hydrolysis products. […]

FAAH-1 = target: T2, FAAH-1 (Homo sapiens, UniProt O00519); assay: Hydrolysis in homogenate of COS-7 cells overexpressed with FAAH-1; assay type: biochemical; details: 5 μM inhibitor
T2 construct: expressed in transfected cells; host or cells: COS-7
T2 sequence (O00519 1-579): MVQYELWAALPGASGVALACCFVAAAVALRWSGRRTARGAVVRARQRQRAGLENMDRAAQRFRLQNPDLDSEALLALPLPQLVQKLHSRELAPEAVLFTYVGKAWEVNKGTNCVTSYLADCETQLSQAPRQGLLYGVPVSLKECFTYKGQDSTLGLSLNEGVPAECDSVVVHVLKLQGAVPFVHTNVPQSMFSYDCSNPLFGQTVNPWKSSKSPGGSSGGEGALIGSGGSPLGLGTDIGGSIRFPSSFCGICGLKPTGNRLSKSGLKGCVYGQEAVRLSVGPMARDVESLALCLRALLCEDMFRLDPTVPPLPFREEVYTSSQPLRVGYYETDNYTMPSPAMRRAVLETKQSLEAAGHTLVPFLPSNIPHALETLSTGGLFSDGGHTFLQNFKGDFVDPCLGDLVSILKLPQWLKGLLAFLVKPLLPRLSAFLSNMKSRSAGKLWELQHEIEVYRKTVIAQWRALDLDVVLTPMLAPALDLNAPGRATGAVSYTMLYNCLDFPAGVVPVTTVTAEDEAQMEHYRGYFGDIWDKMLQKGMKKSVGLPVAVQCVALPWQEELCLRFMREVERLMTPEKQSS
Protocol: (§1) Hydrolysis experiments using COS-7 cells overexpressed with either FAAH-1 or FAAH-2. […] The next day, cells were transfected, in duplicate, with 10 μg Vector control, flag-FAAH-1 or flag-FAAH-2 plasmids using Lipofectamine 2000 (Invitrogen) according to the manufacturer's protocol. 24 hours post transfection, cells were washed 1× in cold PBS, aspirated dry, and then scraped off the plate in the presence of 0.6 mL reaction buffer (50 mM HEPES, pH 9.0; 1 mM EDTA). Cells were then homogenated using a VWR VDI 12 Adaptable Homogenizer, on ice for 1 minute, and the sample was then clarified by centrifugation at 6,000 g for 5 minutes. The supernatant of this homogenated fraction was then used for FAAH hydrolysis assays. […] Gel densitometry was performed and the % FAAH extracted in each successive lysis conditions was determined according to standard procedures.
(§2) The following hydrolysis experiments were performed using COS-7 cells containing overexpressed FAAH-1 or FAAH-2. […] Briefly, the hydrolysis experiments were carried out in Eppendorf tubes using procedures similar to the one described above. […] At time=0, 1, and 3 h, the protein was precipitated with acetonitrile.

FAAH-2 = target: T3, FAAH-2 (Homo sapiens, UniProt Q6GMR7); assay: Hydrolysis in homogenate of COS-7 cells overexpressed with FAAH-2; assay type: biochemical; details: 5 μM inhibitor
T3 construct: expressed in transfected cells; host or cells: COS-7
T3 sequence (Q6GMR7 1-532): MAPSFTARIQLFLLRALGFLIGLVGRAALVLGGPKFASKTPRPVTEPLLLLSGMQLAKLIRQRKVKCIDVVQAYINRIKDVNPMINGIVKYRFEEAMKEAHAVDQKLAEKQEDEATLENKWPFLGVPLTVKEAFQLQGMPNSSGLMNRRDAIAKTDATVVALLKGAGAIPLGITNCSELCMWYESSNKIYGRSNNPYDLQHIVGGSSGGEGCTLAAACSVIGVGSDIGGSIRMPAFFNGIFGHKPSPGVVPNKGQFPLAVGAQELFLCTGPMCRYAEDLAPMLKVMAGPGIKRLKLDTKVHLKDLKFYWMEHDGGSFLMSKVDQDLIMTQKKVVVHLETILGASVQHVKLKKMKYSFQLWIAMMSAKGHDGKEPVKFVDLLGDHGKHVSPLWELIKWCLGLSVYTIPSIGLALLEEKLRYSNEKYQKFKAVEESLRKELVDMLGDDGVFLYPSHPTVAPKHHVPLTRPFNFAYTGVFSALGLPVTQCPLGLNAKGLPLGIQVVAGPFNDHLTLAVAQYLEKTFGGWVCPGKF
Protocol: as §1, §2

LTB4 = LTB4 assay (HTRF) in differentiated HL-60 cells stimulated with A23187; assay type: cell-based; details: Homo sapiens, linked bioactive
Protocol: The LTB4 assay was conducted using a commercial kit (CISBIO, Bedford, Mass.) in HL-60 cells. HL-60 cells were maintained in IMEM supplemented with 20% serum in 37° C. in 5% CO2. Media was changed 2 times a week and cells kept at a density of 2×10^5 to 1×10^6 cells/ml.
Before the experiment cell culture media was changed to 10% serum and HL-60 cells were differentiated for 3 days in 1.3% DMSO. On day 3 cells were concentrated 2 times in the DMSO containing media and 1 ml cell suspension/well plated in 24-well plates. BSA controls or CAT compounds prepared in 1% BSA from an ethanol or DMSO stock solution were added to the wells and the cell were incubated for 21 hours. Next day, cells were transferred to Eppendorf tubes centrifuged at 300×g and rinsed once in DPBS. Cells were re-suspended in 300 μl DPBS containing 2% FBS (assay buffer), and 80 μl/well was plated in 96-well plates (black sides, clear bottom). Some cells were pre-incubated with 10 μM NDGA, a LOX inhibitor. To initiated LTB4 secretion, cells were stimulated with the calcium ionophore A23187 (5 μM) for 15 min. […] LTB4 content in the supernatant was assessed by a homogeneous time resolved fluorescence (HTRF) LTB4 assay from CISBIO, in a 384-well plate format. […] Cell viability was determined in the 96-well plate by CellTiter-Glo (Promega, Madison, Wis.).

IC50 (NFκB): 40000 to 50000 nM | hydrolysis using human recombinant MAG-lipase (remaining compound) ([1]; 5 μM final concentration, 37° C., 0-30 min, no inhibitor): time-dependent hydrolysis
SMILES: CC/C=C\C/C=C\C/C=C\C/C=C\C/C=C\C/C=C\CCC(=O)Nc1ccc(O)c(C(=O)O)c1 [II-1, 5-(4Z,7Z,10Z,13Z,16Z,19Z)-docosa-4,7,10,13,16,19-hexaenamido-2-hydroxybenzoic acid]

SMILES: O=C(Oc1ccc([N+](=O)[O-])cc1)N1CCC(C(O)(c2ccc3c(c2)OCO3)c2ccc3c(c2)OCO3)CC1 [JZL184, reference compound]
effect of MAGL inhibitor on rate of hydrolysis of compound II-1 ([1]; 5 μM inhibitor): reduced significantly

SMILES: NC(=O)c1cccc(-c2cccc(OC(=O)NC3CCCCC3)c2)c1 [URB597]
effect of FAAH inhibitor on hydrolysis of the linked bioactive by rat brain homogenate [2]: essentially eliminated | effect of inhibitor on rate of hydrolysis of compound I-1, FAAH-1 (FAAH-1; FIG. 9A): significantly reduced | effect of inhibitor on rate of formation of DHA from compound I-1, FAAH-1 (FAAH-1; FIG. 9C): significantly inhibited | effect of inhibitor on hydrolysis of compound I-1, FAAH-2 (FAAH-2; FIG. 9B): significantly reduced | effect of inhibitor on formation of DHA from compound I-1, FAAH-2 (FAAH-2; FIG. 9D): more effective in reducing the formation of DHA

IC50 (LTB4): 2200 nM
SMILES: CC/C=C\C/C=C\C/C=C\C/C=C\C/C=C\C/C=C\CCC(=O)NCCNC(=O)C(C)c1ccc(CC(C)C)cc1 (stereo not shown) [VIIa-1, (4Z,7Z,10Z,13Z,16Z,19Z)-N-(2-(2-(4-isobutylphenyl)propanamido)ethyl)docosa-4,7,10,13,16,19-hexaenamide]

IC50 (LTB4): 1600 nM
SMILES: CC/C=C\C/C=C\C/C=C\C/C=C\C/C=C\C/C=C\CCC(=O)N[C@@H](CCCCNC(=O)C(C)c1ccc(CC(C)C)cc1)C(=O)O (stereo partly drawn) [VIIa-2, (2S)-2-((4Z,7Z,10Z,13Z,16Z,19Z)-docosa-4,7,10,13,16,19-hexaenamido)-6-(2-(4-isobutylphenyl)propanamido)hexanoic acid]

Reference: patent US20140315786A1, “USE OF INTRACELLULAR ENZYMES FOR THE RELEASE OF COVALENTLY LINKED BIOACTIVES” (Catabasis Pharmaceuticals, Inc., priority 2011, published 2014)
